Data reported in patent publication US20240336613A1, “HETEROARYL COMPOUNDS FOR TREATING HUNTINGTON'S DISEASE” (PTC THERAPEUTICS, INC., priority 2021, published 2024).
pIC50: −log10 of the molar value.

System: Huntingtin protein (HTT)
Experiment: Endogenous Huntingtin Protein Assay (MSD electrochemiluminescence)
Assay type: cell-based
Settings: Table 1, Endogenous Huntingtin Protein Assay; read-out: IC50
Description: Compounds of Formula (I) were tested using the Meso Scale Discovery (MSD) Assay provided in International Application No. PCT/US2016/066042, filed on Dec. 11, 2016 and claiming priority to United States Provisional Application U.S. 62/265,652 filed on Dec. 10, 2015, the entire contents of which are incorporated herein by reference.
The Endogenous Huntingtin Protein assay used in Example 1 was developed using the ELISA-based MSD electrochemiluminescence assay platform.
Meso Scale Discovery (MSD) 96-well or 384-well plates were coated overnight at 4° C. with MW1 (expanded polyglutamine) or MAB2166 monoclonal antibody (for capture) at a concentration of 1 μg/mL in PBS (30 μL per well). Plates were then washed three times with 300 μL wash buffer (0.05% Tween-20 in PBS) and blocked (100 μL blocking buffer; 5% BSA in PBS) for 4-5 hours at room temperature with rotational shaking and then washed three times with wash buffer.
Samples (25 μL) were transferred to the antibody-coated MSD plate and incubated overnight at 4° C. After removal of the lysates, the plate was washed three times with wash buffer, and 25 μL of #5656S (Cell signaling; rabbit monoclonal) secondary antibody (diluted to 0.25 μg/mL in 0.05% Tween-20 in blocking buffer) was added to each well and incubated with shaking for 1 Hour at room temperature. Following incubation with the secondary antibody, the wells were rinsed with wash buffer after which 25 μL of goat anti-rabbit SULFO TAG secondary detection antibody (required aspect of the MSD system) (diluted to 0.25 μg/mL in 0.05% Tween-20 in blocking buffer) was added to each well and incubated with shaking for 1 hour at room temperature. After rinsing three times with wash buffer, 150 μL of read buffer T with surfactant (MSD) were added to each empty well, and the plate was imaged on a SI 6000 imager (MSD) according to manufacturers' instructions provided for 96- or 384-well plates.

| Compound | pIC50 |
| --- | --- |
| Oc1cc(-n2ccnn2)ccc1-c1cc2ccn(C3CCNC4(CC4)C3)c2nn1 (centres unmarked) [Cpd 4, 2-[7-(4-azaspiro[2.5]octan-7-yl)-7H-pyrrolo[2,3-c]pyridazin-3-yl]-5-(1H-1,2,3-triazol-1-yl)phenol] | > 7.00 |
| 2-{7-[(1S,2R,3R,5R)-2-fluoro-1,5-dimethyl-8-azabicyclo[3.2.1]octan-3-yl]-7H-pyrrolo[2,3-c]pyridazin-3-yl}-5-(1H-1,2,3-triazol-1-yl)phenol and 2-{7-[(1R,2S,3S,5S)-2-fluoro-1,5-dimethyl-8-azabicyclo[3.2.1]octan-3-yl]-7H-pyrrolo[2,3-c]pyridazin-3-yl}-5-(1H-1,2,3-triazol-1-yl)phenol [Cpd 21] | > 7.00 |
